Test results taken from US20140243239A1, “MULTIPLEXED KINASE INHIBITOR BEADS AND USES THEREOF” (University of North Carolina at Chapel Hill, priority 2011, published 2014).

What was measured:
[1] = test system: c-Myc; test: c-Myc protein and RNA levels in SUM159 cells (western blot, qRT-PCR); type: cell-based, human
Procedure: (§1) Western blotting and RTK arrays: Western blotting and RTK array analysis were performed as previously described (Amin et al., 2010). Amin et al. 2010 Sci Transl Med 2, 16ra17. Detailed methods and antibodies are provided in Supplemental Experimental Procedures.
qRT-PCR: Total RNA was isolated from human breast cancer cell lines or murine tumors using the RNeasy® Plus Mini Kit (Qiagen). Real-time RT-PCR was performed on diluted cDNA using the Applied Biosystems 7500 Fast Real-Time PCR System (standard program) and inventoried TaqMan® Gene Expression Assays. Each cDNA sample was assayed in triplicate. Fold change with respect to the calibrator represents the average of the triplicate values, with error bars representing the range of the mean (95% confidence).
(§2) Western blotting: Proteins from cell lysates were separated by SDS-PAGE chromatography, transferred to nitrocellulose membranes, and probed with the indicated primary antibodies. Antibodies recognizing pAKT (S473), pAKT (T308), AURA, pAXL (Y702), AXL, c-Myc, DDR1, EGFR, pERK1/2 (T202/Y204), pHER3 (Y1197), MAX, pMEK1/2 (S217/S221), MEK1/2, MKP3, pP70S6K (T389), pPDGFRβ (Y751), pPDGFRβ (Y1009), pPDGFR (Y857), PDGFRβ, pRAF (S338), pRSK1 (T359/S363), pVEGFR2 (Y1175), VEGFR2 were obtained from Cell Signaling Technology. Antibodies for Cyclin A2, Cyclin B1, Cyclin D1, ERK2, RAF, and pRAF (S259) were obtained from Santa Cruz Biotechnology. The antibody recognizing Bim was obtained from Chemicon. The antibody recognizing p-c-Myc (S62) was obtained from Abeam. Secondary HRP-anti-rabbit and HRP-anti-goat secondary antibodies were from Jackson Immunoresearch Laboratories and Santa Cruz Biotechnology, respectively. Western blots were visualized by incubation with SuperSignal West Pico Chemiluminescent Substrate (Thermo Scientific).

[2] = test system: p70 S6 kinase; test: p70 S6 kinase activity in SUM159 cells; type: cell-based, human; conditions: BEZ235 (FIG. 10F)
Text: (§3) Detailed methods and antibodies are provided in Supplemental Experimental Procedures.
as §2

[3] = test system: SUM159 cells; test: SUM159 cell growth (Cell-Titer Glo, cell counts); type: cell-based, human; conditions: for SUM159 cell growth inhibition in combination with AZD6244 / SUM159 cell growth inhibition, RTK inhibitor as single agent: Cell-Titer Glo (FIG. 5C, 5D)
Procedure: (§4) Cell Culture: MDA-MB-231 cells were grown in DMEM/F12 supplemented with 10% FBS. SUM-159 cells were grown in DMEM/F12 supplemented with 10% FBS 1 μg/mL hydrocortisone, and 5 μg/mL insulin. SUM159-R cells were continually grown in the presence of 5 μM AZD6244. For SILAC labeling, cells were grown for five doublings in arginine- and lysine-depleted media (as above) supplemented with either unlabeled L-arginine (42 mg/L) and L-lysine (71 mg/L) or equimolar amounts of heavy isotope labeled [13C6,15N4]arginine (Arg10) and [13C6]lysine (Lys6) (Cambridge Isotope Laboratories). Proliferation was quantified using Cell-Titer Glo Luminescent Cell Viability Assay (Promega). Fresh media containing DMSO or kinase inhibitors was added daily and experiments were performed in triplicate.

[4] = test system: ERK1/2; test: Western blot of MEK/ERK signaling in SUM159 cells; type: cell-based, human; conditions: BEZ235 (FIG. 10F)
Text: as §3, §2

[5] = test system: RTKs; test: RTK tyrosine phosphorylation/expression in SUM159 cells (RTK arrays, western blot); type: cell-based, human
Procedure: as §1, §2
RTK arrays: Cells were harvested in RTK array lysis buffer containing 20 mM Tris-HCl (pH 8.0), 1% NP-40, 10% glycerol, 137 mM NaCl, 2 mM EDTA, 1×EDTA-free protease inhibitor cocktail (Roche), and 1% each of phosphatase inhibitor cocktails 1 and 2 (Sigma). After incubating on ice for 20 minutes, cell debris was pelleted at 4° C. Lysates (500 μg protein) were applied to R&D Systems Proteome Profiler™ Human Phospho-RTK antibody arrays. Washing and secondary antibody steps were performed according to the manufacturer“s instructions. RTK arrays were visualized by SuperSignal West Pico Chemiluminescent Substrate (Thermo Scientific).

[6] = test system: ALK, RET, INSR and IGF-1R; test: RTK phosphorylation in pancreatic cancer cells (RTK arrays); type: cell-based
Procedure: (§5) Kinome reprogramming in pancreatic cancer—cell type and inhibitor specific. The kinome response to drug in 3 pancreatic cancer cell lines (HPAC, AsPC-1, HPAF-II) was also evaluated using 3 kinase inhibitors that are currently in Phase I/II clinical trials: BKM120 (Novartis), an oral pan-class 1 PI3K inhibitor, […] (Glaxo Smith-Kline), an ATP competitive PI3K/mTOR inhibitor, and GSK1120212, a reversible allosteric inhibitor of MEK1/2 (Glaxo Smith-Kline). The kinome response for GSK2126458 and GSK1120212 was compared using MIB/MS and RTK arrays to determine if kinome reprogramming was inhibitor-specific. […] Thus, kinome reprogramming is target-specific.
Kinome reprogramming in pancreatic cancer cell lines: HPAC, AsPC-1, HPAF-II cell lines were treated with either GSK1120212, GSK2126458, BKM120 or vehicle control and harvested at […]. Normalized spot intensity of RTK arrays were measured and activated and repressed RTK were determined in response to either GSK1120212 or GSK2126458 4 h and 72 h after treatment.

[7] = test system: p70 S6 kinase; test: p70 S6 kinase activity in HPAC pancreatic cancer cells; type: cell-based
Procedure: as §5

[8] = test system: MDA-MB-231 cells; test: MDA-MB-231 cell growth (Cell-Titer Glo); type: cell-based, human; conditions: for MDA-MB-231 cell growth in combination with AZD6244: combination with AZD6244 (FIG. 12C, 12D, 12G)
Procedure: as §4

[9] = test system: RTKs; test: RTK expression in SUM159-R cells (western blot, qRT-PCR); type: cell-based, human; conditions: 10 nM bortezomib, 24 h
Procedure: as §3
(§6) Generation of AZD6244 resistant SUM159 cells: SUM159 cells were cultured in DMEM/F12 supplemented with 10% FBS media containing 5 μM AZD6244. Media was changed every 2 days, maintaining inhibitor concentrations of 5 μM AZD6244.

[10] = test system: kinome (kinase binding to MIBs) of C3Tag tumors; test: MIB/MS kinome profile of C3Tag tumors; type: in vivo, mouse; conditions: sorafenib 30 mg/kg, 26 days
Text: Multiplexed inhibitor bead affinity chromatography: Cells and tumors were lysed and harvested as previously described (Oppermann et al., 2009). Oppermann et al., 2009 Mol Cell Proteo 8 1751-1764. Briefly, lysates were brought to 1 M NaCl and passed through columns of washed inhibitor-conjugated beads (bisindoylmaleimide-X, SB203580, lapatinib, dasatinib, purvalanol B, VI16832, PP58) to isolate protein kinases from the lysates (see Supplemental Experimental Procedures for MIBs preparation). Kinase-bound inhibitor beads were washed with high-salt buffer and 0.1% SDS before elution in 0.5% SDS solution in high heat. Proteins were purified using chloroform/methanol extraction, resuspended in 50 mM ammonium bicarbonate (pH 8.0) or 50 mM HEPES (pH 8.0) for SILAC or iTRAQ respectfully. […]
LC-MS/MS analysis: MS and MS/MS data were acquired using a MALDI TOF/TOF 5800 (AB SCIEX). Peptides were analyzed using ProteinPilot Software Version 3.0 (AB SCIEX) and identification using UniProtKB/Swiss-Prot database (release Oct. 15, 2009). […] ProteinPilot software 3.0 identified and quantified changes in kinase binding to MIBs utilizing the Pro Group Algorithm. […]
Treatment began the same day. Tumor size was assessed twice weekly by caliper measurements of tumor areas ((width)2×length))/2 for 21 days. […]

[11] = test system: ERK1/2; test: ERK activity in SUM159-R cells (western blot); type: cell-based, human; conditions: sorafenib (250 nM) added to 5 μM AZD6244
Procedure: as §3, §6, §2

[12] = test system: RTKs; test: RTK expression in C3Tag tumors (western blot); type: in vivo, mouse; conditions: AZD6244 20 mg/kg 28 days; sorafenib 30 mg/kg 26 days
Procedure: (§7) Treatment began the same day. Tumor size was assessed twice weekly by caliper measurements of tumor areas ((width)2×length))/2 for 21 days. […] Drugs were incorporated into the diet of mice to achieve a daily dose of AZD6244 20 mg/kg and sorafenib 30 mg/kg. […] Tumors at harvest were cut in half and either snap-frozen in liquid nitrogen and stored at −80° C. or placed in neutral buffered 10% formalin solution.
as §2

[13] = test system: ERK; test: MEK/ERK activation in C3Tag tumors (western blot); type: in vivo, mouse; conditions: AZD6244 20 mg/kg 28 days; sorafenib 30 mg/kg 26 days
Procedure: as §7
as §2, with “Western blots were visualized by incubation with SuperSignal West Pico Chemiluminescent Substrate (Thermo Scientific).” left out

[14] = test system: SUM159-R cells; test: Growth of AZD6244-resistant SUM159-R cells; type: cell-based, human; conditions: 250 nM sorafenib, 72 h, cells grown in 5 μM AZD6244
Procedure: as §4, §6

[15] = test system: C3Tag tumors; test: In vivo tumorigenesis experiment, C3Tag TNBC GEMM (tumor volume); parameters: species or system mouse; conditions: C3Tag mice, 21 days, sorafenib 30 mg/kg in diet
Procedure: In vivo tumorigenesis experiments: Animal handling and procedures were approved by the University of North Carolina at Chapel Hill Institutional Animal Care and Use Committee and followed the NIH guidelines. Male C3Tag mice were bred with wild type females to produce experimental offspring. Mice were examined for tumors weekly until a palpable mass was found. Treatment began the same day. Tumor size was assessed twice weekly by caliper measurements of tumor areas ((width)2×length))/2 for 21 days. Percent change of tumor volume was calculated using (Final volume−Initial Volume)/Initial Volume and graphed using R (http://www.r-project.org/). Drugs were incorporated into the diet of mice to achieve a daily dose of AZD6244 20 mg/kg and sorafenib 30 mg/kg. Food was provided ab libitum and the amount of daily food intake was pre-determined using Jackson Labs Phenome Database. Tumors at harvest were cut in half and either snap-frozen in liquid nitrogen and stored at −80° C. or placed in neutral buffered 10% formalin solution.

Compound: Cn1c(=O)n(-c2ccc(C(C)(C)C#N)cc2)c2c3cc(-c4cnc5ccccc5c4)ccc3ncc21 [BEZ235]
- c-Myc expression ([1]; BEZ235 100 nM (FIG. 11C)): does not change
- p70 S6 kinase activity [2]: inhibits p70 S6 kinase activity
- growth of SUM159 cells ([3]; BEZ235 50 nM): strongly growth arrests
- effect on the ERK pathway [4]: little effect
- RTK phosphorylation profile ([5]; 5 μM AZD6244, 50 nM BEZ235 (FIG. 3H)): did not change the RTK phosphorylation profile except for an increase in phospho-AXL

Compound: CCCS(=O)(=O)Nc1ccc(F)c(C(=O)c2c[nH]c3ncc(Cl)cc23)c1F [PLX4720]
- growth of SUM159 cells, RAF inhibitor in combination with AZD6244 ([3]; cotreatment 72 h (FIG. 12F)): stimulated the growth

Compound: COc1ncc(-c2ccc3nccc(-c4ccnnc4)c3c2)cc1NS(=O)(=O)c1ccc(F)cc1F [GSK2126458]
- ALK, RET, INSR and IGF-1R phosphorylation [6]: induced ALK, RET, INSR and IGF-1R phosphorylation
- p70 S6 kinase activity [7]: inhibited p70 S6 kinase activity

Compound: COc1cc2c(Oc3ccc(NC(=O)C4(C(=O)Nc5ccc(F)cc5)CC4)cc3F)ccnc2cc1OCCCN1CCOCC1 [foretinib]
- MDA-MB-231 cell growth in combination with AZD6244 [8]: little effect
- SUM159 cell growth inhibition in combination with AZD6244 [3]: synergistic
- SUM159 cell growth inhibition, RTK inhibitor as single agent [3]: ineffective as single agents

Compound: N#CC(=C(/N)Sc1ccccc1N)/C(C#N)=C(\N)Sc1ccccc1N [U0126]
- growth of MDA-MB-231 cells ([8]; 5 μM MEK inhibitor (FIG. 9A)): inhibited growth
- growth of SUM159 cells ([3]; 5 μM MEK inhibitor (FIG. 2A)): inhibited growth

Compound: CC(C)C[C@H](NC(=O)[C@H](Cc1ccccc1)NC(=O)c1cnccn1)B(O)O [bortezomib]
- AZD6244-induced c-Myc degradation ([1]; bortezomib with 5 μM AZD6244, 24 h): prevented AZD6244-induced c-Myc degradation
- RTK expression in SUM159-R cells [9]: readily reversed RTK expression
- AZD6244-dependent upregulation of RTKs ([5]; bortezomib 3, 10 or 20 nM with 5 μM AZD6244, 24 h): inhibited upregulation of RTKs

Compound: CNC(=O)c1cc(Oc2ccc(NC(=O)Nc3ccc(Cl)c(C(F)(F)F)c3)cc2)ccn1 [sorafenib]
- MDA-MB-231 cell growth in combination with AZD6244 [8]: synergizes
- MIB binding of BRAF, PDGFRβ, CSF1R, DDR1, DDR2, KIT, MLTK and FRK [10]: decreased MIB binding
- ERK activity in SUM159-R cells [11]: inhibited ERK activity
- SUM159 cell growth inhibition in combination with AZD6244 [3]: synergistic
- SUM159 cell growth inhibition, RTK inhibitor as single agent [3]: ineffective as single agents
- growth of SUM159 cells, sorafenib at the highest dose tested in combination with AZD6244 ([3]; highest dose tested, 72 h): synergistically inhibited growth
- SUM159 proliferation, sorafenib at low doses in combination with AZD6244 ([3]; low doses, 72 h): did not significantly stimulate proliferation
- expression of RTKs in C3Tag tumors versus untreated [12]: do not alter RTK expression
- tumor MEK and ERK compared to untreated animals [13]: strongly activated
- Tyr phosphorylation of RTKs induced by AZD6244 ([5]; RTK arrays, 72 h, with AZD6244): inhibited Tyr phosphorylation of multiple RTKs
- growth of SUM159-R cells, cell counts [14]: Inhibited cell growth
- effect on tumor progression [15]: no effect
